Measurements reported in PubChem BioAssay AID179 (DTP/NCI, 2004).
Activity calls are given as the source filed them.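 How the source made its calls: active means compounds giving half or more protection of infected cells from virus-caused growth loss, again on retest; inactive means the rest.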

System: CEM cells HIV-1 protection, formazan growth assay
Experiment: NCI AIDS Antiviral Assay
Conditions: for IC50: measured here: growth of uninfected CEM cells
Procedure, shortened: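 Steps: treat uninfected and HIV-1-infected human CEM cells at five drug levels; quantify growth by soluble formazan; retest any compound reaching 50% protection; classify actives from the retest.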

SMILES | EC50 [µM] | IC50 [µM] | outcome
CO[C@H]1Nc2c(ccc(C)c2O)C(=O)N2C=C(/C=C/C(N)=O)C[C@@H]12 | > 759 | 0.427 | 
CC(=O)/C(=C/n1ccc(=O)[nH]c1=S)C(=O)Nc1ccccc1C | > 200 | > 200 | 
CCOC(=O)NNC(=O)NCCNC(=O)NNC(=O)OCC | > 200 | > 200 | 
Cc1ccc2c(c1)sc1n[nH]c(=S)n12 | > 117 | > 117 | 
O=C(Cc1ccccc1)Nn1c(-c2ccccc2)nc2ccccc2c1=O | 123 | > 200 | 
Cn1c2ccccc2c2cc(-c3ccccc3)c3c(c21)C(=O)C=CC3=O | > 77.6 | 2.57 | 
CC(=O)C(=Cc1cccc(C)c1)C(C)=O | > 339 | 17.8 | 
C[N+](C)(C)C=NCCCCCCN=C[N+](C)(C)C | > 200 | > 200 | 
CC1COC(C)(C)P(=O)(c2ccccc2)C1 (centres undefined) | > 1050 | > 1050 | 
COc1ccc(/C(=N/Nc2nc3ccccc3[nH]2)C(=O)O)cc1 | > 200 | > 200 | 
Fc1nc(F)nc(-c2c3ccccc3c3n2CCS3)n1 | > 25.1 | > 25.1 | 
O=c1[nH]c(=O)n(C2CC(O)C(CO)O2)cc1OCC1CCCCC1 (centres undefined) | > 200 | > 200 | 
CCC12CC[C@H](C#N)N3CCc4c(n(c5ccccc45)C(=O)C1)C32 (some centres undefined) |  |  | inactive
CCOC(=O)[C@]12C(=C(c3ccccc3)O[C@H]3C=CCC[C@H]31)C(=O)C(=O)N2c1ccccc1 | > 200 | 75.9 | 
COc1cccc(C2=NC(C(C)C)CO2)c1 (centres undefined) | > 229 | > 229 | 
O=c1[nH]c(Nc2cccc(Br)c2)nc2nc[nH]c12 | > 200 | > 100 | 
C[C@]12C=CC(=O)C=C1CC[C@H]1[C@@H]3C[C@@H](O)[C@](O)(C(=O)CO)[C@@]3(C)C[C@H](O)[C@@]12F |  |  | inactive
[Co+2].[O-]c1ccccc1C=NCc1ccccc1.[O-]c1ccccc1C=NCc1ccccc1 | > 19.5 | > 19.5 | 
CC(NCCCCCCNC(C)C(=O)O)C(=O)O (centres undefined) | > 589 | > 589 | 
CNc1cc2oc(=O)cc(C)c2cc1C | > 67.6 | > 67.6 | 
CCN(CC)C(=O)c1cc(=O)c(C)c2oc3c(C)c(O)c(N)c(C(=O)N(CC)CC)c3nc1-2 | > 200 | 110 | 
CCC1CN2CCc3cc(OC)c(OC)cc3C2CC1CC1c2cc(OC)c(OC)cc2CCN1C(=O)C1CCCN1 (centres undefined) |  |  | inactive

SMILES | EC50 [µM] | IC50 [µM] | outcome
N.N.N.O=[N+]([O-])[O-].O=[N+]([O-])[O-].O=[N+]([O-])[O-].O=[N+]([O-])[O-].[Co+3] | > 692 | 117 | 
COc1cc2c(c(OC)c1OC)-c1ccc(OC)c(=O)cc1C(NC(=O)c1ccc(N=[N+]=[N-])cc1)CC2 (centres undefined) | > 200 | 5.89 | 
Cc1cc(C)c(OC(=O)Nc2cccc3ccccc23)c(-c2ccccc2)c1 | > 200 | 19.5 | 
CN1C(=NCCO)NS(=O)(=O)c2ccccc21 | > 977 | > 977 | 
c1cc(CSP234N5CCN2CCN3CCN4CC5)cc(CSP234N5CCN2CCN3CCN4CC5)c1 | > 100 | 25.1 | 
C1=CN2CCCN3C=CC=c4ccc(c2c43)=C1 | > 200 | 110 | 
O=C(Nc1ccccc1)C1CC=C2CCC3OC(=O)C1C23 (centres undefined) | > 331 | > 331 | 
N#CCCn1c(CCC(=O)Nc2ccc(Cl)cc2Cl)n[nH]c1=S | 66.1 | 97.7 | 
C=C1CC(COc2ccc3c(C)cc(=O)oc3c2)(c2ccccc2)OC1=O (centres undefined) | > 200 | 0.603 | 
CN(C)[C@@H]1C(=O)C(C(=O)NCNC(CO)(CO)CO)=C(O)[C@@]2(O)C(=O)C3=C(O)c4c(O)cccc4[C@@](C)(O)[C@H]3C[C@@H]12 | > 42.7 | 33.9 | 
O=C(O)c1nc2ccccc2nc1Nc1ccc(Cl)c(Cl)c1 | > 200 | 11.5 | 
O=C1NC(O)n2c(=O)[nH]c(=O)n21 (centres undefined) |  |  | inactive
Clc1ccc(OCc2nnc(CCCCCCCCc3nnc(COc4ccc(Cl)cc4)n3Nc3ccccc3)n2Nc2ccccc2)cc1 |  |  | inactive
O=C(CCCN1CCC2(CC1)C(=O)NCN2c1ccccc1)c1ccc(F)cc1 | > 200 | 13.5 | 
O=C1NC(O)c2cc3ccccc3cc2O1 (centres undefined) | > 200 | 112 | 
CC(=O)C1CCN(Cc2ccccc2)C1 (centres undefined) |  |  | inactive
CN(C)CCn1c2ccccc2c2nc3cc4ccccc4cc3nc21 | > 50.1 | 0.363 | 
COC(=O)C(=O)CC(=O)CCn1[nH]c(=O)c(Cl)c(Cl)c1=O | > 389 | 295 | 
N#CC(C#N)=Cc1ccccc1O | > 200 | 40.7 | 
COc1cc2c(cc1OC)C1Cc3cc(OC)c(OC)cc3C(C2)O1 | > 200 | 105 | 
Cc1ccc(C2=Nn3c(nc4sc(-c5ccccc5)cc4c3=O)SC2)cc1 | > 100 | > 100 | 
C#CCN(CC#C)C(=O)C(=O)c1c[nH]c2ccc(OC)cc12 | > 200 | 40.7 | 

SMILES | EC50 [µM] | IC50 [µM] | outcome
Cc1ccc(C(=O)NC(C)C)cc1N=NN(C)C | > 145 | > 145 | 
CCN(CC)CCC(=O)NC1c2ccccc2Sc2c(C)cccc21 (centres undefined) | > 513 | 44.7 | 
CC1(C)CN=C(Nc2ccc(F)c(Cl)c2)S1 | > 200 | > 200 | 
CN(OC(=O)CC(=O)c1ccccc1)C(=O)Cc1ccccc1 | > 251 | 191 | 
O=C1NC(=O)C(F)(n2cc(F)c(=O)[nH]c2=O)C(O)N1 (centres undefined) | > 200 | 55 | 
COc1c(C)c(O)c2c(c1C)OC(c1ccccc1)CC2=O (centres undefined) | > 17.4 | > 17.4 | 
CC(=O)OCC(C)C1=C(OC(C)=O)C(=O)C2(C)C/C=C(/C)CC/C=C(\C)CCC(OC(C)=O)C(C)CCC12 (centres undefined) | > 200 | 14.5 | 
Cc1[nH]c2ccccc2c1C1Cc2ccccc2N1 (centres undefined) |  |  | inactive
Cc1cc(-c2cc(C)c(N)c(S(=O)(=O)O)c2)cc(S(=O)(=O)O)c1N |  |  | inactive
CN1CCCNC(=S)C1 |  |  | inactive
Cc1ccsc1/C=N/Nc1ncccn1 | > 200 | > 200 | 
O=C1C2=C(c3ccccc31)C(c1ccccc1)N1C(=O)CSC1=N2 (centres undefined) | > 77.6 | 34.7 | 
Cc1[nH]c2ccccc2c1-c1n[nH]c(=O)c2ccccc12 |  |  | inactive
N#CC1(Cc2ccc(N)cc2)c2ccccc2C=CN1C(=O)c1ccccc1 (centres undefined) |  |  | inactive
COc1ccc(/C=C2\CCC(C)C3=C(c4ccc(OC)c(OC)c4)C(C#N)=C(N)OC32)cc1OC (centres undefined) | > 200 | 8.32 | 
COc1ccc(NC(=O)C(=O)Cc2nc3ccc([N+](=O)[O-])cc3[nH]c2=O)c(OC)c1 | > 17.4 | > 17.4 | 
COC(=O)n1c(=O)n(-c2ccccc2)c(=O)n1C(=O)Nc1ccccc1 | > 200 | 195 | 
CCOP(=O)(OCC)/C(C#N)=C/c1cccc(Cl)c1 | > 224 | 174 | 
CC(=O)Nc1ccc(C2C(C(=O)Nc3ccccc3C)=C(C)NC(C)=C2C(=O)Nc2ccccc2C)cc1 | > 70.8 | > 70.8 | 
CC1=NC(=Cc2ccc(O)cc2)C(=O)N1n1c(-c2ccccc2)nc2ccccc2c1=O | > 200 | 21.9 | 
Cc1nc2ccc(S(=O)(=O)Nc3ccccc3)cc2c(=O)n1NC(=O)CNc1ccccc1 | > 200 | 186 | 
